Calls of active or inactive are those of the source. No cut-off for these calls is given here. Where a SMILES comes first, the peptide text is derived from it. Bridges are numbered along the chain shown (N, C = ends).
How the values were obtained:
A549 [1] = assay: Antiinvasive activity against human A549 cells assessed as inhibition of cell invasion at 50 uM after 24 hrs by crystal violet staining based transwell assay relative to control; format: functional; details: A549, 24 h
Paxillin (Homo sapiens) = Paxillin (Homo sapiens) (UniProt P49023); assay: Effect on paxillin phosphorylation in human A549 cells up to 50 uM after 24 hrs by Western blot analysis; format: cell-based
Paxillin (Homo sapiens), sequence (P49023 whole entry): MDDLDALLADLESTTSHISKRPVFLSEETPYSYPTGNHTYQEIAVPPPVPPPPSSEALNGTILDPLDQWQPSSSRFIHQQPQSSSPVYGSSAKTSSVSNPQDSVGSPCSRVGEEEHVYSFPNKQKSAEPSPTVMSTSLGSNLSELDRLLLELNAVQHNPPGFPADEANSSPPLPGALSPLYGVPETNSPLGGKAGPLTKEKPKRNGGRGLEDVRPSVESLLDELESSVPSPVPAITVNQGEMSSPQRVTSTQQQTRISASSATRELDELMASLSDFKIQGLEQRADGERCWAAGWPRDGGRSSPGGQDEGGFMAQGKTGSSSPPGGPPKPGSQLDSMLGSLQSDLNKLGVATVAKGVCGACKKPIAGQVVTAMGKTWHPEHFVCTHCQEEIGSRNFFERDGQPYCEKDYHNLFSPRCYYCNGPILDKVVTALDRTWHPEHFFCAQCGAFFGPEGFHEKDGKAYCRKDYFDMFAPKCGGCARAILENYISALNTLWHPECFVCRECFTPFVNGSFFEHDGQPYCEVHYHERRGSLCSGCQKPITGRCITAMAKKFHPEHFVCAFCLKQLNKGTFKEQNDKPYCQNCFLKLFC

[2] = biological target: Focal adhesion kinase 1 (Homo sapiens) (UniProt Q05397); assay: Effect on FAK phosphorylation in human A549 cells up to 50 uM after 24 hrs by Western blot analysis; format: cell-based
Focal adhesion kinase 1 (Homo sapiens), sequence (Q05397 2-1052 limits assumed): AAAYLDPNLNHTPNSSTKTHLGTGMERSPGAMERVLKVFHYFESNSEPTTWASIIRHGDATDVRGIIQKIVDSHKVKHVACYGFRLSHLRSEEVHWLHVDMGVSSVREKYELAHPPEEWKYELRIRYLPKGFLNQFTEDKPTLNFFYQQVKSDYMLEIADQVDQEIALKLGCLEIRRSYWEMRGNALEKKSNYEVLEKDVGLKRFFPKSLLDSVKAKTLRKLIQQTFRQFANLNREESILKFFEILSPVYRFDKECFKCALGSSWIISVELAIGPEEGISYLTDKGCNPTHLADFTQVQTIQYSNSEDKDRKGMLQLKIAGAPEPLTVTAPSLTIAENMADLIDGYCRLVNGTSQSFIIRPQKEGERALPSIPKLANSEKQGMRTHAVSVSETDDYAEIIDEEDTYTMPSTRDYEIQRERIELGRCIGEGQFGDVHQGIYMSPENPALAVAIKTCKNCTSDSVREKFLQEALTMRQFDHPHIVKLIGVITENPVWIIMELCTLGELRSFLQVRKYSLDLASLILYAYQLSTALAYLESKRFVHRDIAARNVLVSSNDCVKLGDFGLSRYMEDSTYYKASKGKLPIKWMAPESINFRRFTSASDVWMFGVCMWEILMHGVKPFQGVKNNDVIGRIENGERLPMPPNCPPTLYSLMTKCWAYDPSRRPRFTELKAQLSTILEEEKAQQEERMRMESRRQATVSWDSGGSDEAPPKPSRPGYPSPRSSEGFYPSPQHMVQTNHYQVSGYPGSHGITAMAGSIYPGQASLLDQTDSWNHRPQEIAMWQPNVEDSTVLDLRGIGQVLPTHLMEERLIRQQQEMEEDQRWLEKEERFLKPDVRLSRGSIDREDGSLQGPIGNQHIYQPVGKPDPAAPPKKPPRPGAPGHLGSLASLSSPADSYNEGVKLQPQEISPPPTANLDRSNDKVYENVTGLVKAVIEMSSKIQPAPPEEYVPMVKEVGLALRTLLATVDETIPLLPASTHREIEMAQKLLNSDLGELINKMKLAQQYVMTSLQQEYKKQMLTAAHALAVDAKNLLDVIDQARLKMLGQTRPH

[3] = biological target: 72 kDa type IV collagenase (Homo sapiens) (UniProt P08253); assay: Effect on MMP2 phosphorylation in human A549 cells up to 50 uM after 24 hrs by Western blot analysis; format: cell-based
72 kDa type IV collagenase (Homo sapiens), sequence (P08253 110-660 limits assumed): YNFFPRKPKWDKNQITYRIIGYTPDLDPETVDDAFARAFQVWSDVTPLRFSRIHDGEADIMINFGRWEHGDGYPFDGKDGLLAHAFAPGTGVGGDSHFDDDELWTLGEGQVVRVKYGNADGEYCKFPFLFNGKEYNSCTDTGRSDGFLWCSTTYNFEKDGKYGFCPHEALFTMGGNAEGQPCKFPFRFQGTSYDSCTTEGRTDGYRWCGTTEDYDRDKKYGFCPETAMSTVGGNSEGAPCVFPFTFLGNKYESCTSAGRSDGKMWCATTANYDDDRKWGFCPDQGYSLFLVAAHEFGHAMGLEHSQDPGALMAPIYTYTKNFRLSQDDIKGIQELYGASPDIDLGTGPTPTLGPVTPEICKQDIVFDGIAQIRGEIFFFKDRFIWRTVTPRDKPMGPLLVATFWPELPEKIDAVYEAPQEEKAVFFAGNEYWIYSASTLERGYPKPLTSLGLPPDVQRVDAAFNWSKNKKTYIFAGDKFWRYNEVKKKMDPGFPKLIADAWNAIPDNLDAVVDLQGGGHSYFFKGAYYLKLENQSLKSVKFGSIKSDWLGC

A549 [4] = assay: Cytotoxicity against human A549 cells assessed as effect on cell viability up to 100 uM after 24 hrs by EZ-Cytox cell viability assay; format: cell-based; details: a549, 24 h
A549 [5] = assay: Antimigratory activity against human A549 cells assessed as reduction in cell migration measured at 15 mins interval for 12 hrs by Holomonitor M4 time-lapse cytometric method; format: functional, cell-based
A549 [6] = assay: Effect on FAK expression in human A549 cells up to 50 uM after 24 hrs by Western blot analysis; format: functional, cell-based
A549 [7] = assay: Effect on MMP9 expression in human A549 cells up to 50 uM after 24 hrs by Western blot analysis; format: functional, cell-based
A549 [8] = assay: Effect on paxillin expression in human A549 cells up to 50 uM after 24 hrs by Western blot analysis; format: functional, cell-based
A549 [9] = assay: Effect on JNK expression in human A549 cells up to 50 uM after 24 hrs by Western blot analysis; format: functional, cell-based
A549 [10] = assay: Effect on ERK expression in human A549 cells up to 50 uM after 24 hrs by Western blot analysis; format: functional, cell-based
[11] = biological target: c-Jun N-terminal kinase, JNK (Homo sapiens) (UniProt P45983+P53779+P45984); assay: Effect on JNK phosphorylation in human A549 cells up to 50 uM after 24 hrs by Western blot analysis; format: cell-based
A549 [12] = assay: Antimigratory activity against human A549 cells assessed as reduction in cell motility measured at 15 mins interval for 12 hrs by Holomonitor M4 time-lapse cytometric method; format: functional, cell-based
[13] = biological target: MAP kinase p38 (Homo sapiens) (UniProt O15264+Q15759+Q16539+P53778); assay: Effect on p38 phosphorylation in human A549 cells up to 50 uM after 24 hrs by Western blot analysis; format: cell-based
A549 [14] = assay: Effect on p38 expression in human A549 cells up to 50 uM after 24 hrs by Western blot analysis; format: functional, cell-based
[15] = biological target: Matrix metalloproteinase-9 (Homo sapiens) (UniProt P14780); assay: Effect on MMP9 phosphorylation in human A549 cells up to 50 uM after 24 hrs by Western blot analysis; format: cell-based
Matrix metalloproteinase-9 (Homo sapiens), sequence (P14780 whole entry): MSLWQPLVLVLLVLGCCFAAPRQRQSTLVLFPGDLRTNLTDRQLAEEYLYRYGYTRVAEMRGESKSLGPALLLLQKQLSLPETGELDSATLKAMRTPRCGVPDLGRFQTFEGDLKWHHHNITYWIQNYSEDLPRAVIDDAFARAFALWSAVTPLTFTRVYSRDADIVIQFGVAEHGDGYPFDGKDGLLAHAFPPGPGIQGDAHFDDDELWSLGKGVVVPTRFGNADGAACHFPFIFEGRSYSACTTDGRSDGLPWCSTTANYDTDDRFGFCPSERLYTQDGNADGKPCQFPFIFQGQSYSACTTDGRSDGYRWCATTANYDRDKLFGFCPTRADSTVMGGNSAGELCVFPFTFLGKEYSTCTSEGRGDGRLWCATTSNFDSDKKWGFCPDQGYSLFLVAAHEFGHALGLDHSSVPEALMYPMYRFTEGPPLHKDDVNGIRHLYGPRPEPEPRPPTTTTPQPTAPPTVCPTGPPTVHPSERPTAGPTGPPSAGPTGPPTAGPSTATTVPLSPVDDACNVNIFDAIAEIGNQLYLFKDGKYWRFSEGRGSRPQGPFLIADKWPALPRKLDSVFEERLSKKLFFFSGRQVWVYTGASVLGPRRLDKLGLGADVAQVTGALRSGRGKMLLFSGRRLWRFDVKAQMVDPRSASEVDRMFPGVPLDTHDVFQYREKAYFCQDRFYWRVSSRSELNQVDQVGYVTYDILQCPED

A549 [16] = assay: Effect on ERK phosphorylation in human A549 cells up to 50 uM after 24 hrs by Western blot analysis; format: cell-based
A549 [17] = assay: Effect on MMP2 expression in human A549 cells up to 50 uM after 24 hrs by Western blot analysis; format: functional, cell-based

Activity (Paxillin (Homo sapiens)) | Activity [2] | Activity [3] | Activity [11] | Activity [13] | Activity [15] | SMILES | inhibition at 50 µM (A549 [1]) [%] | Activity (A549 [4]) | Activity (A549 [5]) | Activity (A549 [6]) | Activity (A549 [7]) | Activity (A549 [8]) | Activity (A549 [9]) | Activity (A549 [10]) | Activity (A549 [12]) | Activity (A549 [14]) | Activity (A549 [16]) | Activity (A549 [17])
 |  |  |  |  |  | CC(C)C[C@H](NC(=O)CNC(=O)[C@H](Cc1ccccc1)NC(=O)[C@H](CO)NC(=O)[C@@H]1CC(=O)NCC(=O)N[C@@H](Cc2ccccc2)C(=O)NCC(=O)N[C@@H](CO)C(=O)N[C@@H](CCCCN)C(=O)N2CCC[C@H]2C(=O)N[C@@H](CC(C)C)C(=O)N1)C(=O)N[C@@H](CC(N)=O)C(=O)N[C@@H](Cc1ccccc1)C(=O)N[C@@H](Cc1ccccc1)C(=O)O (GFGSKPLDSFGLNFF-OH; lactam N-8) | 56 |  |  |  |  |  |  |  |  |  |  | 
inactive | inactive | inactive | inactive | inactive | inactive | CC[C@H](C)[C@@H]1NC(=O)[C@H](Cc2ccccc2)NC(=O)CNC(=O)C[C@@H](C(=O)N[C@H](C(=O)N[C@@H](Cc2ccccc2)C(=O)NCC(=O)N[C@@H](Cc2cnc[nH]2)C(=O)N[C@@H](Cc2ccc(O)cc2)C(=O)NCC(=O)NCC(=O)O)[C@@H](C)CC)NC(=O)[C@H](CCCCN)NC(=O)CNC(=O)[C@H](Cc2c[nH]c3ccccc23)NC(=O)CNC1=O (GFIGWGKDIFGHYGG-OH; lactam N-8) | 48.4 | Non-Toxic | Dose-dependent effect | inactive | inactive | inactive | inactive | inactive | Dose-dependent effect | inactive | inactive | inactive
 |  |  |  |  |  | CC[C@H](C)[C@@H]1NC(=O)[C@@H]2CCCN2C(=O)[C@H](CCCCN)NC(=O)[C@H](CO)NC(=O)CNC(=O)[C@H](Cc2ccccc2)NC(=O)CNC(=O)C[C@@H](C(=O)N[C@@H](CO)C(=O)N[C@@H](Cc2ccccc2)C(=O)NCC(=O)N[C@@H](CC(C)C)C(=O)N[C@@H](CO)C(=O)N[C@@H](Cc2c[nH]c3ccccc23)C(=O)N[C@@H](CC(C)C)C(=O)O)NC1=O [SUNGSANPIN] (GFGSKPIDSFGLSWL-OH; lactam N-8) | 53 |  |  |  |  |  |  |  |  |  |  | 

From ChEMBL document CHEMBL4411262, “Ulleungdin, a Lasso Peptide with Cancer Cell Migration Inhibitory Activity Discovered by the Genome Mining Approach” (J Nat Prod, 2018)
